Assay results as given in publication PMC10648349, “Aromatic Diboronic Acids as Effective KPC/AmpC Inhibitors” (Molecules, 2023).
Converted amounts (≈) assume the structure as drawn.

Key:
[1] = test system: E. coli 77 CMY-2-positive; assay: checkerboard microdilution, antibiotic plus tested agent; type: cell-based, Escherichia coli
In short: (§1)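 β-lactam 1–64 mg/L × agent/PBA 4–16 mg/L checkerboard; meropenem vs carbapenemase producers, ceftazidime vs AmpC producer; imipenem, ertapenem added for selected agents. Readout: combination MICs, FICI (average and lowest); off-scale MICs taken as next doubling.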

[2] = test system: P. aeruginosa MUW 700 cAmpC-positive; assay: as above; type: cell-based, Pseudomonas aeruginosa
In short: as §1

C. krusei ATCC 6258 = assay: antifungal activity (disc-diffusion, MIC, MFC); type: cell-based, Candida krusei; conditions: Pichia kudriavzevii, ATCC6258; fluconazole by Etest
In short: (§2)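 First, discs bearing 0.4 mg of compound in DMSO were tested for growth inhibition. Next, MIC was determined, followed by MBC for bacteria or MFC for yeasts, all per EUCAST and CLSI.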

[3] = test system: P. aeruginosa MUW 700 cAmpC-positive; assay: combination disc test CDT-AmpC; type: cell-based; conditions: Pseudomonas aeruginosa; agent 0.3 mg per disc; read-out: Diameter of inhibition zone, CAZ-30 disc with agent
[4] = test system: K. pneumoniae ATCC BAA 1705 KPC-2-positive; assay: combination disc test CDT-KPC; type: cell-based; conditions: Klebsiella pneumoniae, BAA1705; agent 0.3 mg per disc; read-out: Diameter of inhibition zone, MEM-10 disc with agent
[5] = test system: C. parapsilosis ATCC 22019; assay: antifungal activity (disc-diffusion, MIC, MFC); type: cell-based, Candida parapsilosis; conditions: Lodderomyces parapsilosis, ATCC22019; fluconazole by Etest
In short: as §2

[6] = MTT-based viability assay; type: cell-based; conditions: human, MRC-5 human fibroblasts, 72 h, read-out: Viability of MRC-5 cells (% of viable cells ± SD)
In short: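 MRC-5 human fibroblasts grown in MEME with 10% FBS at 37 °C, 5% CO2, tested by MTT with absorbance read at 570 nm. Viability given as percent of untreated control cells, in triplicate.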

[7] = test system: S. aureus ATCC 43300 MRSA; assay: direct antimicrobial activity (disc-diffusion, MIC, MBC); type: cell-based; conditions: Staphylococcus aureus
In short: as §2

E. faecium ATCC 6057 = assay: as above; type: cell-based; conditions: Enterococcus faecium, ATCC6057
In short: as §2

[8] = test system: S. epidermidis ATCC 12228; assay: as above; type: cell-based; conditions: Staphylococcus epidermidis, ATCC12228; for zone of inhibition at 0.4 mg/disc: 0.4 mg per disc, 9 mm disc (linezolid 0.03 mg, 6 mm disc), - no zone, read-out: Diameter of inhibition zone
In short: as §2

S. aureus ATCC 6538P = assay: as above; type: cell-based; conditions: Staphylococcus aureus, ATCC6538P
In short: as §2

E. faecalis ATCC 29212 = assay: as above; type: cell-based; conditions: Enterococcus faecalis, ATCC29212
In short: as §2

C. albicans ATCC 90028 = assay: antifungal activity (disc-diffusion, MIC, MFC); type: cell-based; conditions: Candida albicans, ATCC90028; fluconazole by Etest
In short: as §2

S. cerevisiae ATCC 9763 = assay: antifungal activity (disc-diffusion, MIC, MFC); type: cell-based; conditions: Saccharomyces cerevisiae, ATCC9763; fluconazole by Etest
In short: as §2

C. tropicalis ATCC 750 = assay: antifungal activity (disc-diffusion, MIC, MFC); type: cell-based; conditions: Candida tropicalis, ATCC750; fluconazole by Etest
In short: as §2

C. tropicalis IBA 171 = assay: antifungal activity (disc-diffusion, MIC, MFC); type: cell-based; conditions: Candida tropicalis, IBA171; fluconazole by Etest
In short: as §2

[9] = test system: E. coli 77 CMY-2-positive; assay: combination disc test CDT-AmpC; type: cell-based; conditions: Escherichia coli; agent 0.3 mg per disc; read-out: Diameter of inhibition zone, CAZ-30 disc with agent
B. subtilis ATCC 6633 = assay: direct antimicrobial activity (disc-diffusion); type: cell-based; conditions: Bacillus subtilis, ATCC6633; 0.4 mg per disc, 9 mm disc (linezolid 0.03 mg, 6 mm disc); - no zone; read-out: Diameter of inhibition zone
In short: as §2

SMILES | Average FICI with ceftazidime [1] | The lowest FICI with ceftazidime [1] | Average FICI with ceftazidime [2] | Interpretation of the average FICI with ceftazidime [2] | Interpretation of the lowest FICI with ceftazidime [2] | The lowest FICI with ceftazidime [2] | MIC (C. krusei ATCC 6258) | zone of inhibition at 300 µg/disc [3] | zone of inhibition at 300 µg/disc [4] | MIC [5] | viability at 72 h, 12.5 mg/L [6] | viability at 72 h, 25 mg/L [6] | viability at 72 h, 50 mg/L [6] | MIC [7] | MIC (E. faecium ATCC 6057) | MIC [8] | zone of inhibition at 0.4 mg/disc [8] | MIC (S. aureus ATCC 6538P) | MIC (E. faecalis ATCC 29212) | MIC (C. albicans ATCC 90028) | further results
OB(O)c1ccc(B(O)O)c(B(O)O)c1 [4b, benzene-1,2,4-triboronic] | 0.43 | 0.27 | 0.30 | S (FICI ≤ 0.5, synergy) | S (FICI ≤ 0.5, synergy) | 0.15 | > 400 µg/mL | 21 mm | 14 mm | > 400 µg/mL | 114 ± 1.8% | 106.4 ± 0.1% | 97.3 ± 13.6% | 200 µg/mL (≈ 954 µM) | 200 µg/mL (≈ 954 µM) | 200 µg/mL (≈ 954 µM) | 20 mm | 25 µg/mL (≈ 119 µM) | 200 µg/mL (≈ 954 µM) | > 400 µg/mL | zone of inhibition at 0.4 mg/disc (S. aureus ATCC 6538P; 0.4 mg per disc, 9 mm disc (linezolid 0.03 mg, 6 mm disc), - no zone, read-out: Diameter of inhibition zone): 20 mm; MIC (S. cerevisiae ATCC 9763): > 400 µg/mL; MIC (C. tropicalis ATCC 750): > 400 µg/mL; MIC (C. tropicalis IBA 171): > 400 µg/mL; zone of inhibition at 300 µg/disc [9]: 21 mm; zone of inhibition at 0.4 mg/disc (B. subtilis ATCC 6633): 18 mm
OB(O)c1ccsc1B(O)O [5a, thiophene-2,3-diboronic acid] | 0.43 | 0.27 | 0.30 | S (FICI ≤ 0.5, synergy) | S (FICI ≤ 0.5, synergy) | 0.15 | > 400 µg/mL | 22 mm | 15 mm | > 400 µg/mL | 88.6 ± 9.2% | 87.1 ± 1.6% | 79.2 ± 5.1% | 400 µg/mL (≈ 2330 µM) | > 400 µg/mL | 400 µg/mL (≈ 2330 µM) | 13 mm | 100 µg/mL (≈ 582 µM) | 100 µg/mL (≈ 582 µM) | 400 µg/mL (≈ 2330 µM) | MIC (S. cerevisiae ATCC 9763): > 400 µg/mL; MIC (C. tropicalis ATCC 750): > 400 µg/mL; MIC (C. tropicalis IBA 171): > 400 µg/mL; zone of inhibition at 300 µg/disc [9]: 20 mm; zone of inhibition at 0.4 mg/disc (B. subtilis ATCC 6633): 15 mm
